Laboratory results taken from PubChem BioAssay (NCI).
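96-well plates; 48 h exposure; 5 concentrations. Endpoints by linear interpolation between flanking doses. Not reached: highest tested concentration assigned. GI50 = concentration required for 50% inhibition of growth. TGI is the concentration that stops growth completely.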

Legend:
Assay in all cases: DTP human tumour cell line panel, 48 h
M14 melanoma = test system: M14 melanoma
OVCAR-5 ovarian = test system: OVCAR-5 ovarian
SK-MEL-28 melanoma = test system: SK-MEL-28 melanoma
HT29 colon = test system: HT29 colon
K-562 leukemia = test system: K-562 leukemia
IGROV1 ovarian = test system: IGROV1 ovarian
SW-620 colon = test system: SW-620 colon
UACC-257 melanoma = test system: UACC-257 melanoma
MDA-MB-231 breast = test system: MDA-MB-231 breast
SN12C renal = test system: SN12C renal
SR leukemia = test system: SR leukemia
KM12 colon = test system: KM12 colon
HCT-15 colon = test system: HCT-15 colon
HCT-116 colon = test system: HCT-116 colon
NCI-H226 lung = test system: NCI-H226 lung
MCF7 breast = test system: MCF7 breast
HCC-2998 colon = test system: HCC-2998 colon
MALME-3M melanoma = test system: MALME-3M melanoma
COLO 205 colon = test system: COLO 205 colon
A549 NSCLC = test system: A549 NSCLC
786-0 renal = test system: 786-0 renal
RXF 393 renal = test system: RXF 393 renal
OVCAR-8 ovarian = test system: OVCAR-8 ovarian
SK-MEL-2 melanoma = test system: SK-MEL-2 melanoma
MOLT-4 leukemia = test system: MOLT-4 leukemia
SK-MEL-5 melanoma = test system: SK-MEL-5 melanoma
NCI-H522 lung = test system: NCI-H522 lung
SK-OV-3 ovarian = test system: SK-OV-3 ovarian
DU-145 prostate = test system: DU-145 prostate
MDA-MB-435 = test system: MDA-MB-435
HL-60(TB) leukemia = test system: HL-60(TB) leukemia
SF-268 CNS = test system: SF-268 CNS
UACC-62 melanoma = test system: UACC-62 melanoma
EKVX NSCLC = test system: EKVX NSCLC
SNB-75 CNS = test system: SNB-75 CNS
BT-549 breast = test system: BT-549 breast
NCI-H23 lung = test system: NCI-H23 lung
HS 578T breast = test system: HS 578T breast
HOP-62 NSCLC = test system: HOP-62 NSCLC
LOX IMVI melanoma = test system: LOX IMVI melanoma
SNB-19 CNS = test system: SNB-19 CNS

## COc1ccc(CN2c3ccccc3Sc3ccccc32)c(F)c1
M14 melanoma
  GI50: 0.0381 µM
  TGI: > 100 µM
OVCAR-5 ovarian
  GI50: 4.39 µM
  TGI: > 100 µM
SK-MEL-28 melanoma
  GI50: 5.05 µM
  TGI: > 100 µM
HT29 colon
  GI50: 0.035 µM
  TGI: > 100 µM
K-562 leukemia
  GI50: 0.038 µM
  TGI: > 100 µM
IGROV1 ovarian
  GI50: 4.56 µM
  TGI: > 100 µM
SW-620 colon
  GI50: 0.0363 µM
  TGI: > 100 µM
UACC-257 melanoma
  GI50: > 100 µM
  TGI: > 100 µM
MDA-MB-231 breast
  GI50: 5.09 µM
  TGI: > 100 µM
SN12C renal
  GI50: 10.6 µM
  TGI: > 100 µM
SR leukemia
  GI50: 0.0596 µM
  TGI: > 100 µM
KM12 colon
  GI50: 0.0432 µM
  TGI: > 100 µM
HCT-15 colon
  GI50: 0.0379 µM
  TGI: > 100 µM
HCT-116 colon
  GI50: 0.0398 µM
  TGI: > 100 µM
NCI-H226 lung
  GI50: 13 µM
  TGI: > 100 µM
MCF7 breast
  GI50: 0.0327 µM
  TGI: > 100 µM
HCC-2998 colon
  GI50: 5.06 µM
  TGI: > 100 µM

## CNc1ccc(C(=O)CC(O)CCC(C)C2OC(=O)CC(O)CC(=O)CC(O)CC(O)CC(O)CC(O)CC3(O)CC(O)C(C(=O)N4CCOCC4)C(CC(OC4OC(C)C(O)C(N)C4O)/C=C/C=C/C=C/C=C\C=C/C=C/C=C/C2C)O3)cc1 (stereo unspecified)
MALME-3M melanoma
  TGI: 0.4 µM
OVCAR-5 ovarian
  TGI: > 100 µM
COLO 205 colon
  TGI: > 100 µM
A549 NSCLC
  TGI: > 100 µM
786-0 renal
  TGI: > 100 µM
RXF 393 renal
  TGI: 0.637 µM
OVCAR-8 ovarian
  TGI: > 100 µM
SK-MEL-2 melanoma
  TGI: 8.55 µM
K-562 leukemia
  TGI: > 100 µM
SW-620 colon
  TGI: > 100 µM
UACC-257 melanoma
  TGI: 0.384 µM
MOLT-4 leukemia
  TGI: > 100 µM
KM12 colon
  TGI: 0.747 µM
SK-MEL-5 melanoma
  TGI: 0.462 µM
NCI-H522 lung
  TGI: 0.55 µM
SK-OV-3 ovarian
  TGI: > 100 µM
HCT-116 colon
  TGI: > 100 µM
DU-145 prostate
  TGI: 3.31 µM
MDA-MB-435
  TGI: 0.798 µM
NCI-H226 lung
  TGI: 0.553 µM
HL-60(TB) leukemia
  TGI: > 100 µM

## COc1ccc2[nH]c(O)c(N=NC(=O)c3oc4ccccc4c3C)c2c1
SF-268 CNS
  GI50: 5.18 µM
  TGI: 56.8 µM
UACC-62 melanoma
  GI50: 5.19 µM
  TGI: > 100 µM
OVCAR-8 ovarian
  GI50: 3.22 µM
  TGI: > 100 µM
EKVX NSCLC
  GI50: 2.94 µM
  TGI: > 100 µM
SK-MEL-2 melanoma
  GI50: 2.56 µM
  TGI: 6.62 µM
SNB-75 CNS
  GI50: 1.25 µM
  TGI: 2.75 µM
BT-549 breast
  GI50: 5.38 µM
  TGI: 33.7 µM
NCI-H23 lung
  GI50: 1.86 µM
  TGI: 4.43 µM
HS 578T breast
  GI50: 2.41 µM
  TGI: 7.72 µM
MDA-MB-231 breast
  GI50: 2.07 µM
  TGI: 5.1 µM
SN12C renal
  GI50: 2.82 µM
  TGI: > 100 µM
HOP-62 NSCLC
  GI50: 1.92 µM
  TGI: 4.02 µM
NCI-H522 lung
  GI50: 6.07 µM
  TGI: > 100 µM
LOX IMVI melanoma
  GI50: 3.16 µM
  TGI: > 100 µM
SNB-19 CNS
  GI50: 3.45 µM
  TGI: 16.2 µM
HL-60(TB) leukemia
  GI50: > 100 µM
  TGI: > 100 µM

## Cn1cc(-c2nc(-c3c[nH]c4ccncc34)cs2)c2cc(Br)ccc21
OVCAR-5 ovarian
  GI50: 1.81 µM
  TGI: 3.27 µM
SK-MEL-2 melanoma
  GI50: 2 µM
  TGI: 3.62 µM
SNB-75 CNS
  GI50: 1.23 µM
  TGI: 2.54 µM
UACC-257 melanoma
  GI50: 1.99 µM
  TGI: 3.52 µM
MDA-MB-231 breast
  GI50: 1.41 µM
  TGI: 2.84 µM
SK-MEL-5 melanoma
  GI50: 1.6 µM
  TGI: 2.95 µM
DU-145 prostate
  GI50: 1.82 µM
  TGI: 3.28 µM
